In US11160862B2, “Nanoemulsion adjuvant for nasal mucosa and preparation method thereof” (NATIONAL HEALTH RESEARCH INSTITUTES, priority 2017, dated 2021):

Test system: B16-F10/OVA cells
Test: Lung metastasis after intranasal melanoma vaccination, pathological observation of lung
Type: in vivo
Details: C57BL/6 mice inoculated with B16-F10/OVA cells, intranasal 100 μg/dose once a week for 3 weeks, one week after final vaccination
Procedure: 6-week old female C57BL/6 mice were intravascularly inoculated with B16-F10/OVA cells (melanoma cells expressing OVA epitopes, 5×10^5 cells/mouse). One week later, mice were divided into 4 groups (n=6 per group): vaccinated with PBS, ovalbumin (OVA), OVA adjuvanted with 0.1% PELC and OVA adjuvanted with nanoPELC. The mice were intranasally vaccinated with PBS or OVA formulation (100 μg/dose) once a week for 3 weeks. One week after the final vaccination, some of the mice were sacrificed, and the lung was isolated for pathological observation.

ovalbumin
melanoma infection area in the lungs (lung metastasis): not as serious as the PBS group, but it still had a certain area
